This note sets out measurements from the OligoGym collection.

Bases are written 5' to 3'; sugars and linkages follow in the same order, as letters with counts (s phosphorothioate, o phosphodiester; PS: all linkages phosphorothioate). The collection does not say whether C is 5-methylated. l = locked nucleic acid (LNA); d = 2'-deoxy (DNA)

In the series the target is Tau. Description: rat primary cortical neurons, FLIPR, 25 uM ASO.
On to GGCGGCGCAGGCGCGA (sugars l3 d10 l3, PS), for which the calcium oscillation score is 49.6 % of control. To TTCCATCTTACTAATAG (sugars l4 d9 l4, PS) belongs 49.2 % of control; to “CTTTATTTCCAAATTCACT (sugars l4 d10 l1 d2 l2, PS)”, 125 % of control; to CTTACTGATCATAATC (sugars l4 d8 l4, PS), 56.4 % of control. To “CCACCCAAACTCCAAGTT (sugars l2 d14 l2, PS)” belongs 52 % of control; to “CTTCTAATTTAGTCACC (sugars l3 d10 l4, PS)”, 54.6 % of control. To “ACCATTAACTGCCTATT (sugars l4 d11 l2, PS)” belongs 50.5 % of control.

Regarding AAACAGGATACAGT (sugars l3 d8 l3, PS), the calcium oscillation score is 109 % of control. For “CTCTTTGAACACCCCATC (sugars l3 d13 l2, PS)”, the calcium oscillation score was 41.9 % of control. To CATAGTCACTCTGGTG (sugars l3 d10 l3, PS) belongs 1.9 % of control; to TTGCTCAGGTCAACTG (sugars l3 d10 l3, PS), 42.9 % of control; to CATGCTTACACACCAC (sugars l2 d10 l4, PS), 82.9 % of control. Next, “TCCAAAGCATCAAATCC (sugars l3 d11 l3, PS)”: 85.5 % of control. Next, “CCGCCTTTAGTGATTACAGG (sugars l3 d14 l3, PS)”: 4.03 % of control.

Turning to CGCAGGCGCGAGCA (sugars l3 d8 l3, PS), the calcium oscillation score is 102 % of control. Consider “CAGACACCACTGGCGACTTG (sugars l3 d14 l3, PS)”, for which the calcium oscillation score is 46.5 % of control. For “CGTCCCAGCGTGATCTTCCA (sugars l5 d11 l4, PS)”, the calcium oscillation score was 36.2 % of control.

For “ACTTTATCCCTCCATGAT (sugars l3 d11 l4, PS)”, the calcium oscillation score is 47.4 % of control.

In the case of “ACTTTATTTCCAAATTCACT (sugars l5 d11 l4, PS)”, the calcium oscillation score is 138 % of control. Next, “TTTATTTCCAAATTCACTTT (sugars l5 d10 l5, PS)”: ≥ 200 % of control. In the case of AAGTCCCGAGCCAAAG (sugars l3 d10 l3, PS), the calcium oscillation score was 91.8 % of control. Next, “GACTGCTCAGCTAAGACCCT (sugars l3 d14 l3, PS)”: 31.2 % of control; “TTATTTCCAAATTCACTTTT (sugars lldldlddddddddddllll, PS)”: 88.8 % of control. For the sequence “CTCTTAGCATCCACTTA (sugars l3 d12 l2, PS)”, the calcium oscillation score is 44.5 % of control.

Take “CATTTCTGGAAGGTTCTTTC (sugars l3 d14 l3, PS)”: the calcium oscillation score was 23.9 % of control. Consider “ATCCTAAGTCAACCACA (sugars l2 d11 l4, PS)”, for which the calcium oscillation score is 69 % of control. For “TTCCACATTTTACAGTA (sugars l3 d10 l4, PS)”, the calcium oscillation score was 76.6 % of control. Next, “TAATTCCCAAATTCCTCATA (sugars l2 d14 l4, PS)”: 53.9 % of control; “CTACATTTTTGTCTCAT (sugars l4 d10 l3, PS)”: 65.4 % of control.

GTTTGTAGACTATTT (sugars l3 d9 l3, PS): the calcium oscillation score was 0 % of control. On to GCCCTAAAGTCCCAG (sugars l3 d9 l3, PS), for which the calcium oscillation score is 34.3 % of control. ATCCTTCTAAGTACAA (sugars l4 d8 l4, PS): the calcium oscillation score was 85.6 % of control.

In the case of GAACTGCGAGGAGCAG (sugars l3 d10 l3, PS), the calcium oscillation score is 85.2 % of control. To “CTTTATTTCCAAATTCACTT (sugars l3 d1 l1 d12 l3, PS)” belongs 29.8 % of control. With TTTGAAGTCCCGAGCC (sugars l3 d10 l3, PS), the calcium oscillation score was 22.4 % of control.

Consider “ACCGAACTGCGAGGAGCAGC (sugars l3 d14 l3, PS)”, for which the calcium oscillation score is 0 % of control. For the sequence “CTCATTTTTCTCAAGCTC (sugars l3 d12 l3, PS)”, the calcium oscillation score was 44.8 % of control. Consider “CACAAACCAACTCAACATTA (sugars l4 d13 l3, PS)”, for which the calcium oscillation score is 82.7 % of control.

As to “TTATTTCCAAATTCACTTTT (sugars lllldddddddddlddldll, PS)”, the calcium oscillation score is 96.5 % of control. As to “TCATTTACCAATTATCTTTA (sugars l4 d13 l3, PS)”, the calcium oscillation score is 48.8 % of control. As to “TCTCAAGTCTTATTCTC (sugars l3 d11 l3, PS)”, the calcium oscillation score was 38.6 % of control.

“AATCCATTTATATTCTTTTA (sugars l4 d12 l4, PS)”: the calcium oscillation score was 38.5 % of control. Next, TTCTTGTGATGCAGGA (sugars l3 d10 l3, PS): 61.3 % of control; AGAGGAACGTGTGGAT (sugars l3 d10 l3, PS): 25.9 % of control. “ACCTTTTTCCATCTTACTAA (sugars l4 d13 l3, PS)”: the calcium oscillation score was 52 % of control. Next, “CCGAACTGCGAGGAGCAGCT (sugars l3 d14 l3, PS)”: 38.9 % of control; “TATCTTATTGCTTTCCA (sugars l2 d12 l3, PS)”: 63 % of control.

Take “ATATTCCACACATAAACAA (sugars l4 d11 l4, PS)”: the calcium oscillation score is 62.8 % of control. “TAGACCACATTTCCATC (sugars l3 d11 l3, PS)”: the calcium oscillation score is 79.1 % of control. Turning to “CTTTTTTTTTCCACACTCTC (sugars l2 d14 l4, PS)”, the calcium oscillation score is 49 % of control. Next, “CTTTATTTCCAAATTCACT (sugars l5 d9 l2 d1 l2, PS)”: 108 % of control; ATATCATATCCTAAGC (sugars l4 d9 l3, PS): 50.9 % of control.

For the sequence ACTGCGAGGAGCAGCT (sugars l3 d10 l3, PS), the calcium oscillation score was 48.1 % of control.

Regarding TTTCTCTAATTGTCCAA (sugars l4 d9 l4, PS), the calcium oscillation score is 56.6 % of control. To “TTATTTCCAAATTCACTTTT (sugars lldldldddddddddlldll, PS)” belongs 110 % of control; to AGAATATTACACCATC (sugars l4 d8 l4, PS), 102 % of control; to “CAAAACATTCTCACCAAACC (sugars l4 d14 l2, PS)”, 84.8 % of control. “TTAAGTGATTAACCAATTAA (sugars l3 d14 l3, PS)”: the calcium oscillation score is 40.1 % of control.

AATAAGAAAGGAACGC (sugars l4 d7 l5, PS): the calcium oscillation score was 97.6 % of control. To TTTCAACTCTTAGCATC (sugars l4 d9 l4, PS) belongs 70.8 % of control; to “ACCAGTTACCATCATAC (sugars l4 d11 l2, PS)”, 93.2 % of control. Take GTCCTAATCCTGTGC (sugars l3 d9 l3, PS): the calcium oscillation score was 36.5 % of control. “CAACTCAACATTACCCTTAA (sugars l3 d14 l3, PS)”: the calcium oscillation score is 68 % of control. TGATACCCTTCCTCAG (sugars l2 d12 l2, PS): the calcium oscillation score was 4.76 % of control. To “TATTTCCAAATTCACTTTTA (sugars l3 d14 l3, PS)” belongs ≥ 200 % of control.

Turning to CCACCTCCTGGTTTAT (sugars l3 d10 l3, PS), the calcium oscillation score was 104 % of control. To “CTTATTGCTTTCCAATTC (sugars l2 d12 l4, PS)” belongs 83.6 % of control; to “TCTAATTTAGTCACCAT (sugars l4 d10 l3, PS)”, 96 % of control.
